pKd: −log10 of the molar value. Like-named read-outs stand apart in the source and are kept apart here. *1 amine or outer side, *2 acyl side, *3 side chain or, on linkers, in order; H or OH if unused. Where a SMILES comes first, the peptide text is derived from it. Bridges are numbered along the chain shown (N, C = ends). [ ]: non-standard residue; d: D form. The star is where a group is joined. hPhe(3-Cl-4-CF3) = N[C@@H](CCc1ccc(C(F)(F)F)c(Cl)c1)C(=O)O; NPrPhe(4-CF3) = CCCN[C@@H](Cc1ccc(C(F)(F)F)cc1)C(=O)O; X15 = Cc1ccc(C[C@@H](C(=O)[*:2])N(CCC(C)C)[*:1])cc1; NMeGly(cPent) = CN[C@H](C(=O)O)C1CCCC1; Hyp = O=C(O)[C@@H]1C[C@@H](O)CN1; NMeD = CN[C@@H](CC(=O)O)C(=O)O; NMeL = CN[C@@H](CC(C)C)C(=O)O; Morpholide = C1CN(*)CCO1; NMeA = CN[C@@H](C)C(=O)O; Ac5c = NC1(C(=O)O)CCCC1; Aze = O=C(O)[C@@H]1CCN1; Ac4c = NC1(C(=O)O)CCC1; Sar = CNCC(=O)O
Assays:
[1] = biological target: GDP-bound KRAS wild-type protein (Homo sapiens, UniProt P01116); test: Binding to KRAS by surface plasmon resonance (SPR), Single Cycle Kinetics; details: GDP-bound KRAS wild-type protein, read-out: KRAS KD
[2] = biological target: GDP-bound HRAS wild-type protein (Homo sapiens, UniProt P01112); test: Binding to HRAS by surface plasmon resonance (SPR), Single Cycle Kinetics; details: SPR, GDP-bound HRAS wild-type protein vs GDP-bound KRAS wild-type protein
[3] = SPR Single Cycle Kinetics, 1:1 binding model

Sequence of GDP-bound KRAS wild-type protein (P01116 whole entry): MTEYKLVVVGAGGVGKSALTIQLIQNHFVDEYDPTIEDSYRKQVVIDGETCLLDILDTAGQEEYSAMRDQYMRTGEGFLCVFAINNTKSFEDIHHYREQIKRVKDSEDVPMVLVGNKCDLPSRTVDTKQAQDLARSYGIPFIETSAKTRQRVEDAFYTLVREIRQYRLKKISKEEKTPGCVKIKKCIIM
Sequence of GDP-bound HRAS wild-type protein (P01112 whole entry): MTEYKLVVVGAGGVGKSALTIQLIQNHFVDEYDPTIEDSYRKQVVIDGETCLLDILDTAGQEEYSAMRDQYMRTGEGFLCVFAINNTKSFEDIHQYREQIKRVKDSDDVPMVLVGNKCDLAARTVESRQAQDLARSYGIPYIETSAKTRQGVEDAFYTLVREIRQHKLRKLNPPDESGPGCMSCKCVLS

Row | pKd [1, 3] | pKd ([1]; SPR, Single Cycle Kinetics) | SMILES | also measured
1 | 9.64 |  | CC[C@H](C)[C@@H]1NC(=O)[C@H](CC(C)C)N(C)C(=O)C[C@@H](C(=O)N2CCOCC2)N(C)C(=O)[C@H](C2CCCC2)N(C)C(=O)C2(CCCC2)NC(=O)[C@@H]2CCCN2C(=O)[C@H](CCc2ccc(C(F)(F)F)c(Cl)c2)NC(=O)CN(C)C(=O)[C@H](Cc2ccc(C)cc2)N(CCC(C)C)C(=O)CN(C)C(=O)CN(C)C1=O [PP0098] ([NMeL]I[Sar][Sar][X15][Sar][hPhe(3-Cl-4-CF3)]P[Ac5c][NMeGly(cPent)][NMeD]-Morpholide; lactam N-11) | 
2 |  | 9.77 | CCO[C@@H]1C[C@H]2C(=O)NC3(CC(C)(C)C3)C(=O)N(C)[C@@H](C3CCCC3)C(=O)N(C)[C@H](C(=O)N(C)C)CC(=O)N(C)[C@H]3CCCCCCc4ccc(cc4)C[C@@H](C(=O)N(C)CC(=O)N[C@@H](CCc4ccc(C(F)(F)F)c(OC)c4)C(=O)N2C1)N1CC/C=C\C[C@@H](C1=O)N(C)C(=O)CN(C1CC1)C(=O)[C@H]([C@@H](C)CC)NC3=O [PP3070] | HRAS/KRAS (ratio of KD value for HRAS to KD value for KRAS) [2]: B (a compound having 3 or more and less than 10 is denoted as B)
3 |  | 10.28 | CCO[C@@H]1C[C@H]2C(=O)NC3(CC(C)(C)C3)C(=O)N(C)[C@@H](C(CC)CC)C(=O)N(C)[C@H](C(=O)N(C)C)CC(=O)N(C)[C@H]3CCCC/C=C/c4ccc(cc4)C[C@@H](C(=O)N(C)CC(=O)N[C@@H](CCc4cc(F)c(C(F)(F)F)c(F)c4)C(=O)N2C1)N1CC/C=C\C[C@@H](C1=O)N(C)C(=O)CN(C)C(=O)[C@H]([C@@H](C)CC)NC3=O [PP3044] | 
4 |  | 9.70 | CCO[C@@H]1C[C@H]2C(=O)NC3(CCC3)C(=O)N(C)[C@@H](C3CCCC3)C(=O)N(C)[C@H](C(=O)N3CCCC3)CC(=O)N(C)[C@H]3CCCCC/C=C/c4ccc(cc4)C[C@@H](C(=O)N(C)CC(=O)N[C@@H](CCc4ccc(Cl)c(Cl)c4)C(=O)N2C1)N1CC/C=C\C[C@@H](C1=O)N(C)C(=O)CN(C)C(=O)[C@H]([C@@H](C)CC)NC3=O [PP3049] | 
5 | 10.68 |  | CCCN1C(=O)[C@@H]2CCN2C(=O)[C@H](C)N(C)C(=O)[C@H]([C@@H](C)CC)NC(=O)[C@H](CC(C)C)N(C)C(=O)C[C@@H](C(=O)N(C)C)N(C)C(=O)[C@H](C2CCCC2)N(C)C(=O)C2(CCC2)NC(=O)[C@@H]2C[C@@H](OCC)CN2C(=O)[C@H](CCc2ccc(C(F)(F)F)c(Cl)c2)NC(=O)CN(C)C(=O)[C@@H]1Cc1ccc(C(F)(F)F)cc1 [PP0439] ([NMeL]I[NMeA][Aze][NPrPhe(4-CF3)][Sar][hPhe(3-Cl-4-CF3)][Hyp](Et)[Ac4c][NMeGly(cPent)][NMeD]-NMe2; lactam N-11) | 

The next lines start with the compound.

Row | SMILES | pKd [1, 3] | pKd ([1]; SPR, Single Cycle Kinetics) | also measured
6 | CC[C@H](C)[C@@H]1NC(=O)[C@H](CC(C)C)N(C)C(=O)C[C@@H](C(=O)N2CCOCC2)N(C)C(=O)[C@H](C2CCCC2)NC(=O)C2(CCCC2)NC(=O)[C@@H]2CCCN2C(=O)[C@H](CCc2cc(F)c(C(F)(F)F)c(F)c2)NC(=O)CN(C)C(=O)[C@H](Cc2ccc(C(F)(F)F)cc2)N2CCCCC[C@@H](C2=O)N(C)C(=O)CN(C)C1=O [PP0478] | 6.40 |  | 
7 | CCO[C@@H]1C[C@H]2C(=O)NC3(CCC3)C(=O)N(C)[C@@H](C(CC)CC)C(=O)N(C)[C@H](C)CC(=O)N(C)[C@@H](CC3CCCC3)C(=O)N[C@@H]([C@@H](C)CC)C(=O)N(C)CC(=O)N(C)[C@H]3C/C=C\CCN(C3=O)[C@@H](Cc3ccc(F)cc3)C(=O)N(C)CC(=O)N[C@@H](CCc3cc(F)c(C(F)(F)F)c(F)c3)C(=O)N2C1 [PP1523] |  |  | pKd ([1]; SPR, Single Cycle Kinetics, 1:1 binding model): 8.39
8 | CCO[C@@H]1C[C@H]2C(=O)NC3(CC(C)(C)C3)C(=O)N(C)[C@@H](C(CC)CC)C(=O)N(C)[C@H](C(=O)N3CCCCC3)CC(=O)N(C)[C@H]3CCC/C=C/c4ccc(cc4)C[C@@H](C(=O)N(C)CC(=O)N[C@@H](CCc4cc(F)c(C(F)(F)F)c(F)c4)C(=O)N2C1)N1CC/C=C\C[C@@H](C1=O)N(C)C(=O)CN(C)C(=O)[C@H]([C@@H](C)CC)NC3=O [PP2952] | 9.10 |  | 
9 | CCO[C@@H]1C[C@H]2C(=O)NC3(CCC3)C(=O)N(C)[C@@H](C(CC)CC)C(=O)N(C)[C@H](C(=O)N3CCCCC3)CC(=O)N(C)[C@H]3CCCCC/C=C/c4ccc(cc4)C[C@@H](C(=O)N(C)CC(=O)N[C@@H](CCc4ccc(Cl)c(Cl)c4)C(=O)N2C1)N1CC/C=C\C[C@@H](C1=O)N(C)C(=O)CN(C)C(=O)[C@H]([C@@H](C)CC)NC3=O [PP3051] |  | 9.12 | 

Source: patent US20240158446A1, “CYCLIC COMPOUND HAVING SELECTIVE INHIBITORY ACTION ON KRAS OVER HRAS AND NRAS” (CHUGAI SEIYAKU KABUSHIKI KAISHA, priority 2021, published 2024)
